According to US20050256034A1, “Dioxolane analogs for improved inter-cellular delivery” (priority 2000, published 2005):

Assays:
Assay type in all cases: cell-based
CEM/ARAC8C cells = test: Cellular uptake assay of 3H-labelled nucleoside; settings: 30 μM, 6-min time course, compared with uridine
Experimental: (§1) FIG. 1 Comparative uptake of 30 μM [^3H]-troxacitabine in CEM (Panel A) and CEM/APAC8C (Panel B) cells. [^3H]-Uridine uptake in either the presence or absence of the hENT1 inhibitor, NBMPR or 5 mM non-radioactive uridine was included for comparison as a control substrate.
(§2) Cancer Res., 56: 4187-4191.
(§3) The transport of [^3H]uridine was inhibited in the presence either of the hENT1 inhibitor, NBMPR, or excess non-radioactive uridine.

CEM cells (es, hENT1) = test: Cellular uptake assay of 3H-labelled nucleoside; settings: 30 μM, 6-min time course, compared with uridine
Experimental: as §1, §2, §3

[1] = target: T1, hENT1 (es) in DU145 cells (Homo sapiens, UniProt Q99808); test: Cellular uptake assay of 3H-labelled nucleoside, NT inhibitor and self-competition
T1 construct: functional es-mediated transport (hENT1) in DU145 cells; endogenous in cells; host or cells: DU145 cells
T1 sequence (Q99808 1-456): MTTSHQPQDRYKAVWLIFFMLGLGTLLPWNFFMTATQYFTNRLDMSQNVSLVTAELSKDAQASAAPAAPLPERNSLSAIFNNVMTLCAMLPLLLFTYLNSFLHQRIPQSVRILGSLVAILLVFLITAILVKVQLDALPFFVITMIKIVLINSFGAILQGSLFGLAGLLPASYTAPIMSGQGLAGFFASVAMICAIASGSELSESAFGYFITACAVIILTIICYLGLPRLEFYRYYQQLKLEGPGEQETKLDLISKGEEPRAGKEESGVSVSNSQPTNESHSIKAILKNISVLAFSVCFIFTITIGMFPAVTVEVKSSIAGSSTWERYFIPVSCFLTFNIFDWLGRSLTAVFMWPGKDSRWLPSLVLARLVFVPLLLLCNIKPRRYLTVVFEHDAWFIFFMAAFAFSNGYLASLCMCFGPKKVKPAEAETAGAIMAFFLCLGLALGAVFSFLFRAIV
Experimental: FIG. 2 Comparative uptake of 10 μM [^3H]troxacitabine (0-240 min) (Panel B) and 10 μM [^3H]D-uridine (0-6 min) (Panel A) in the presence (▴) or absence ( ? ) of the hENT1 inhibitor, 100 nM NBMPP, in DU145 cells.
as §2
(FIG. 2A). In contrast, low levels of [^3H]troxacitabine were taken up and uptake was not affected by the presence of NBMPR (FIG. 2B).
DU145 cells: This experiment is designed to show whether [^3H]L-troxacitabine (10 μM) is taken up by DU145 cells and if the rate of uptake is affected by the addition of high concentrations (1 mM) of non-radioactive troxacitabine.

Nc1ccn([C@@H]2CO[C@H](CO)O2)c(=O)n1 [Troxacitabine, troxacitabine]
uptake of 3H-labelled nucleoside (CEM/ARAC8C cells): taken up to a lesser degree | uptake of 3H-labelled nucleoside (CEM cells (es, hENT1)): taken up to a lesser degree | effect of non-radioactive troxacitabine (1 mM) on uptake ([1]; 10 μM labelled): no significant effect | effect of NBMPR on uptake ([1]; 10 μM, 0-240 min, 100 nM NBMPR): not affected | rate of uptake ([1]; 10 μM, short (0-30 s) and prolonged exposures (0-4 h)): very slow
